Reference: the SangsterLogP compilation

logP	Compound
6.14	Clc1ccc(Oc2ccc(Cl)c(Cl)c2Cl)cc1
8.16	Clc1c(Cl)c(Cl)c(Oc2c(Cl)c(Cl)c(Cl)c(Cl)c2Cl)c(Cl)c1Cl
6.95	Clc1ccc(Oc2c(Cl)c(Cl)c(Cl)c(Cl)c2Cl)cc1
6.07	Clc1cccc(Oc2ccc(Cl)c(Cl)c2Cl)c1
6.13	Clc1cc(Cl)cc(Oc2ccc(Cl)cc2Cl)c1
8.07	Clc1cc(Oc2c(Cl)c(Cl)c(Cl)c(Cl)c2Cl)c(Cl)c(Cl)c1Cl
6.98	Clc1cc(Oc2c(Cl)ccc(Cl)c2Cl)c(Cl)c(Cl)c1Cl
6.65	Clc1ccc(Oc2c(Cl)ccc(Cl)c2Cl)c(Cl)c1Cl
6.76	Clc1ccc(Oc2c(Cl)c(Cl)cc(Cl)c2Cl)c(Cl)c1
5.95	Clc1ccc(Oc2ccc(Cl)cc2Cl)c(Cl)c1
7.81	Clc1cc(Cl)c(Oc2c(Cl)c(Cl)c(Cl)c(Cl)c2Cl)cc1Cl
4.45	Clc1ccccc1Oc1ccccc1
6.6	Clc1ccc(Oc2cc(Cl)c(Cl)cc2Cl)cc1Cl
5.35	Clc1ccc(Cl)c(Oc2ccccc2)c1Cl
6.51	Clc1ccc(Oc2ccc(Cl)c(Cl)c2Cl)cc1Cl
5.92	Clc1ccc(Oc2c(Cl)cc(Cl)cc2Cl)cc1
5.53	Clc1ccc(Oc2ccc(Cl)cc2Cl)cc1
5.25	Clc1ccc(Oc2ccc(Cl)cc2)cc1
5.88	Clc1ccc(Oc2ccc(Cl)c(Cl)c2)cc1
6.21	Clc1ccc(Oc2cc(Cl)cc(Cl)c2Cl)cc1
6.13	Clc1ccc(Oc2ccc(Cl)c(Cl)c2)c(Cl)c1
6.99	Clc1cc(Oc2ccc(Cl)c(Cl)c2Cl)cc(Cl)c1Cl
5.32	Clc1cc(Cl)c(Oc2ccccc2)c(Cl)c1
5.13	Clc1ccc(Oc2cccc(Cl)c2)cc1
5.99	Clc1ccc(Oc2cccc(Cl)c2Cl)cc1Cl

logP	Compound
5.97	Clc1cc(Cl)c(Oc2ccccc2Cl)cc1Cl
5.74	Clc1cccc(Oc2ccc(Cl)c(Cl)c2)c1
5.13	Clc1ccc(Cl)c(Oc2ccccc2)c1
7.84	Clc1ccc(Oc2c(Cl)c(Cl)c(Cl)c(Cl)c2Cl)c(Cl)c1Cl
6.52	Clc1cc(Cl)c(Cl)c(Oc2ccc(Cl)c(Cl)c2)c1
5	Clc1cccc(Oc2ccccc2)c1Cl
5.88	Clc1ccc(Oc2c(Cl)ccc(Cl)c2Cl)cc1
6.31	Clc1ccc(Oc2c(Cl)ccc(Cl)c2Cl)cc1Cl
7.78	Clc1cc(Oc2cc(Cl)c(Cl)c(Cl)c2Cl)c(Cl)c(Cl)c1Cl
6.44	Clc1cc(Cl)c(Oc2ccc(Cl)c(Cl)c2)c(Cl)c1
5.21	Clc1cc(Cl)cc(Oc2ccccc2)c1
6.76	Clc1cc(Cl)c(Cl)c(Oc2cc(Cl)c(Cl)cc2Cl)c1
4.99	Clc1ccc(Oc2ccccc2)cc1Cl
4.64	Clc1cccc(Cl)c1Oc1ccccc1
7.13	Clc1cc(Cl)c(Oc2c(Cl)c(Cl)cc(Cl)c2Cl)cc1Cl
6.72	Clc1cc(Cl)c(Oc2cc(Cl)c(Cl)cc2Cl)cc1Cl
5.98	Clc1cc(Cl)c(Oc2c(Cl)cccc2Cl)cc1Cl
5.99	Clc1ccc(Oc2cc(Cl)c(Cl)cc2Cl)cc1
6.06	Clc1ccc(Oc2c(Cl)ccc(Cl)c2Cl)c(Cl)c1
5.03	Clc1ccc(Oc2ccccc2Cl)cc1
7.31	Clc1ccc(Oc2c(Cl)c(Cl)c(Cl)c(Cl)c2Cl)cc1Cl
5.66	Clc1ccc(Oc2cc(Cl)ccc2Cl)cc1
7.31	Clc1cc(Cl)c(Oc2cc(Cl)c(Cl)c(Cl)c2Cl)c(Cl)c1
6.22	Clc1ccc(Cl)c(Oc2cc(Cl)c(Cl)cc2Cl)c1
6.49	Clc1cc(Cl)c(Oc2cc(Cl)c(Cl)cc2Cl)c(Cl)c1

logP	Compound
7.07	Clc1ccc(Oc2c(Cl)cc(Cl)c(Cl)c2Cl)cc1Cl
6.28	Clc1ccc(Oc2ccc(Cl)c(Cl)c2Cl)c(Cl)c1
5.55	Clc1ccc(Oc2ccccc2)c(Cl)c1Cl
5.72	Clc1ccccc1Oc1ccc(Cl)c(Cl)c1Cl
5.5	Clc1ccc(Oc2ccccc2Cl)cc1Cl
6.63	Clc1ccc(Oc2cc(Cl)c(Cl)c(Cl)c2)c(Cl)c1
7.55	Clc1cc(Oc2cc(Cl)c(Cl)c(Cl)c2Cl)cc(Cl)c1Cl
7.01	Clc1cc(Cl)c(Cl)c(Oc2ccc(Cl)c(Cl)c2Cl)c1
6.11	Clc1ccc(Cl)c(Oc2ccc(Cl)c(Cl)c2)c1
6.51	Clc1ccc(Cl)c(Oc2ccc(Cl)c(Cl)c2Cl)c1
7.63	Clc1cc(Oc2c(Cl)c(Cl)cc(Cl)c2Cl)c(Cl)c(Cl)c1Cl
6.83	Clc1ccc(Oc2cc(Cl)c(Cl)c(Cl)c2)cc1Cl
6.78	Clc1ccc(Oc2c(Cl)c(Cl)cc(Cl)c2Cl)cc1Cl
6.82	Clc1ccc(Oc2ccc(Cl)c(Cl)c2Cl)c(Cl)c1Cl
5.3	Clc1ccc(Oc2c(Cl)cccc2Cl)cc1
6.3	Clc1ccc(Oc2cc(Cl)c(Cl)c(Cl)c2)cc1
5.77	Clc1ccc(Oc2cc(Cl)cc(Cl)c2)cc1
6.61	Clc1ccc(Oc2cc(Cl)c(Cl)c(Cl)c2Cl)cc1
4.93	Clc1ccc(Oc2ccccc2)c(Cl)c1
6.14	Clc1cccc(Oc2cc(Cl)c(Cl)cc2Cl)c1
5.78	Clc1ccc(Oc2cc(Cl)ccc2Cl)c(Cl)c1
6.66	Clc1cc(Cl)cc(Oc2cc(Cl)c(Cl)cc2Cl)c1
6.38	Clc1ccc(Oc2cc(Cl)c(Cl)cc2Cl)c(Cl)c1
7.28	Clc1ccc(Oc2cc(Cl)c(Cl)c(Cl)c2Cl)c(Cl)c1Cl
5.88	Clc1ccc(Oc2cccc(Cl)c2Cl)c(Cl)c1

logP	Compound
5.7	Clc1ccc(Oc2c(Cl)cccc2Cl)cc1Cl
7.14	Clc1ccc(Oc2c(Cl)c(Cl)cc(Cl)c2Cl)c(Cl)c1Cl
6.47	Clc1cc(Cl)c(Oc2c(Cl)ccc(Cl)c2Cl)cc1Cl
5.63	Clc1ccc(Oc2cccc(Cl)c2Cl)cc1
6.11	Clc1ccc(Oc2c(Cl)cccc2Cl)c(Cl)c1Cl
6.41	Clc1ccc(Oc2c(Cl)c(Cl)cc(Cl)c2Cl)cc1
6.47	Clc1ccc(Oc2c(Cl)cc(Cl)c(Cl)c2Cl)cc1
6.72	Clc1ccc(Oc2cc(Cl)c(Cl)c(Cl)c2Cl)c(Cl)c1
5.65	Clc1cccc(Oc2ccc(Cl)cc2Cl)c1
6.3	Clc1cccc(Oc2ccc(Cl)c(Cl)c2Cl)c1Cl
5.7	Clc1cc(Oc2ccccc2)cc(Cl)c1Cl
6.22	Clc1cc(Cl)cc(Oc2ccc(Cl)c(Cl)c2)c1
7.46	Clc1cc(Cl)c(Oc2cc(Cl)c(Cl)c(Cl)c2Cl)cc1Cl
4.96	Clc1ccc(Oc2ccccc2Cl)c(Cl)c1
4.75	Clc1cccc(Oc2ccccc2)c1
5.62	Clc1cc(Cl)c(Cl)c(Oc2ccccc2)c1
6.22	Clc1cc(Cl)c(Oc2cccc(Cl)c2Cl)cc1Cl
6.11	Clc1ccc(Oc2c(Cl)cc(Cl)cc2Cl)c(Cl)c1
7.11	Clc1cc(Cl)c(Oc2cc(Cl)c(Cl)c(Cl)c2)cc1Cl
7.01	Clc1cc(Cl)c(Oc2ccc(Cl)c(Cl)c2Cl)cc1Cl
5.82	Clc1cc(Cl)c(Cl)c(Oc2ccccc2)c1Cl
6.58	Clc1cc(Cl)cc(Oc2ccc(Cl)c(Cl)c2Cl)c1
6.84	Clc1ccc(Oc2c(Cl)cc(Cl)c(Cl)c2Cl)c(Cl)c1

Compound	logP
Clc1ccc(Oc2ccc(Cl)c(Cl)c2)cc1Cl	6.36
Clc1ccc(Oc2ccccc2)cc1	4.7
